Here are results for one compound from ChEMBL document CHEMBL6078670, “Discovery of a potent and selective TRPC3 antagonist with neuroprotective effects” (Bioorg Med Chem, 2025).

Activity calls are given as the source filed them. No cut-off for these calls is given here.

Usually IC50 stands for the point on the concentration scale where inhibition reaches its midpoint. Read a high IC50 as a need for much substance. Usually inhibition stands for the change of the read-out against control, counted positive when it falls.

In data set [1] the target is T1, Short transient receptor potential channel 7 (Homo sapiens) (UniProt Q9HCX4).
T1 sequence (whole entry): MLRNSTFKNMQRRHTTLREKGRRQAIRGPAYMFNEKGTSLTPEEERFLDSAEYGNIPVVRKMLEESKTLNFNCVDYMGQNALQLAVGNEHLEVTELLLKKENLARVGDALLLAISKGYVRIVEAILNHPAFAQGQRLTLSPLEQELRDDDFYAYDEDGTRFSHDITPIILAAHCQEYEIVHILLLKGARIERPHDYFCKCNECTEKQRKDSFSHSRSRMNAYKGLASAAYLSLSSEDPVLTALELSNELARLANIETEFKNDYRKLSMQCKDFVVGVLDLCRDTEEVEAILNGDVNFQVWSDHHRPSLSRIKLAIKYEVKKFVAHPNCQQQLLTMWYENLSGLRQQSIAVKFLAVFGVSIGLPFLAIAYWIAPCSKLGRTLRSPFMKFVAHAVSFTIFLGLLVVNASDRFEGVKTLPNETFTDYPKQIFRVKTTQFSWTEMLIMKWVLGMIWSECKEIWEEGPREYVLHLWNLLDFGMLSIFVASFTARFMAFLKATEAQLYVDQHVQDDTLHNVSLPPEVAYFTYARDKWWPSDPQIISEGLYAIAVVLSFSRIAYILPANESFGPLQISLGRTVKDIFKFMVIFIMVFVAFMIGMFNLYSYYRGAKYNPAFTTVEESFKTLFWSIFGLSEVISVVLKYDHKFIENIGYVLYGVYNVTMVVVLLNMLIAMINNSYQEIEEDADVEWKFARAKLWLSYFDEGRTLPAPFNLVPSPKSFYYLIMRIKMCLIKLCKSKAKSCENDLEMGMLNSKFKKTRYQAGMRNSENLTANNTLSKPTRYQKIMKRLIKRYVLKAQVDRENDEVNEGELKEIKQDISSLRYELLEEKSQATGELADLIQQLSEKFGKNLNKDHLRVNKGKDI
Description: Antagonist activity at human TRPC7 expressed in HEK293 cells assessed as inhibition of carbachol-induced activity at 10 uM measured after 48 hrs by Whole-cell patch clamp electrophysiology. The format is cell-based. For orientation: The patch-clamp technique gives a direct electrical read-out from membranes.

The target of data set [2] is Short transient receptor potential channel 1 (Rattus norvegicus) (UniProt Q9QX01). Kind of data set: Antagonist activity at rat TRPC1 expressed in HEK293 cells assessed as inhibition of carbachol-induced activity at 10 uM measured after 48 hrs by Whole-cell patch clamp electrophysiology. The format is cell-based.
Chain of Short transient receptor potential channel 1 (Rattus norvegicus) (Q9QX01 whole entry): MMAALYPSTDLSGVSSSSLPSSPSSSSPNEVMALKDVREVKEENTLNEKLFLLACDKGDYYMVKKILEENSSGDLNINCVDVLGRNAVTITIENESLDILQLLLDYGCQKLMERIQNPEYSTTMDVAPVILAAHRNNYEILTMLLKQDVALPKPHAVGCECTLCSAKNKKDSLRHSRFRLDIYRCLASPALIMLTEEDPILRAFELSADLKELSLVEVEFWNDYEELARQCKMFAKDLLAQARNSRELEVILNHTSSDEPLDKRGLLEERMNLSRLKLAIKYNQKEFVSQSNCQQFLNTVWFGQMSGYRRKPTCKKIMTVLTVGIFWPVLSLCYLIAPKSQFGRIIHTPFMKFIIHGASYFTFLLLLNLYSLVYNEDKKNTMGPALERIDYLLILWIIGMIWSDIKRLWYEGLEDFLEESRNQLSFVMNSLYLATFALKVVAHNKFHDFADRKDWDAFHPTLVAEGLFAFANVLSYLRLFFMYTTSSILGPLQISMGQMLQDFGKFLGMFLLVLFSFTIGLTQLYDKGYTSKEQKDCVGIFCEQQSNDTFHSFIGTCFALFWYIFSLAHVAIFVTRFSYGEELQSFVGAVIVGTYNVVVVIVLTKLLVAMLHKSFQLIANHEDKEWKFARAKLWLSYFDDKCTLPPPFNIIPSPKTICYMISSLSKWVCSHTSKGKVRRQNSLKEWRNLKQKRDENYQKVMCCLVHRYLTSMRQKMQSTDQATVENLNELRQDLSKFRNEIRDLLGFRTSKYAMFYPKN
The target in a further data set is Cytochrome P450 2C9 (Homo sapiens, UniProt P11712). Kind of data set: Inhibition of human liver microsomes CYP2C9 measured after 10 mins incubation by LC-MS analysis. It is filed as ADME, Microsome.
Chain of Cytochrome P450 2C9 (P11712 whole entry): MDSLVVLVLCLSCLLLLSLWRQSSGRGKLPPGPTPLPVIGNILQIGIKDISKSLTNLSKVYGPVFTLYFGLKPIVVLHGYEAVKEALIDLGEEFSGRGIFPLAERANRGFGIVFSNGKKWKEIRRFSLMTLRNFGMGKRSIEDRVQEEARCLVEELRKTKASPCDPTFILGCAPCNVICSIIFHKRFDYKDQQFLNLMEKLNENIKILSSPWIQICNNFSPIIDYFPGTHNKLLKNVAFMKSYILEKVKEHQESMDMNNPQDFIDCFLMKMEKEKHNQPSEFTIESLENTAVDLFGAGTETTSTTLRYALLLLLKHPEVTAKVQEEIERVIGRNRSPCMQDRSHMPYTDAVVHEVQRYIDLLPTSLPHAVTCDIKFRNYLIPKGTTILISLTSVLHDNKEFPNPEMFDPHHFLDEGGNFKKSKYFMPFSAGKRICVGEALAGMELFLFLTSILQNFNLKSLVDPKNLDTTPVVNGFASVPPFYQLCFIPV
Data set [3] is described as follows: Metabolic stability in human liver microsomes assessed as half life measured up to 60 mins by LC-MS/MS analysis. It is filed as ADME, Microsome. To be noted: 1 h. On the technique in general: Microsomes from liver hold many membrane-bound enzymes, among them those of drug oxidation.
The test system of data set [4] is Hippocampal neurone. Kind of data set: Rescuing beta-amyloid induced neuronal cell damage in Sprague-Dawley rat primary hippocampal cell culture (composed of 60% primary neuron, 20% microglia and 20% astrocyte) assessed as decrease in soluble oligomeric Abeta-containing media (7PA2 cells) induced synaptic toxicity at 100 nM. It is filed as functional, cell-based.

The target in data set [5] is T2, Short transient receptor potential channel 3 (Homo sapiens) (UniProt Q13507).
T2 sequence (whole entry): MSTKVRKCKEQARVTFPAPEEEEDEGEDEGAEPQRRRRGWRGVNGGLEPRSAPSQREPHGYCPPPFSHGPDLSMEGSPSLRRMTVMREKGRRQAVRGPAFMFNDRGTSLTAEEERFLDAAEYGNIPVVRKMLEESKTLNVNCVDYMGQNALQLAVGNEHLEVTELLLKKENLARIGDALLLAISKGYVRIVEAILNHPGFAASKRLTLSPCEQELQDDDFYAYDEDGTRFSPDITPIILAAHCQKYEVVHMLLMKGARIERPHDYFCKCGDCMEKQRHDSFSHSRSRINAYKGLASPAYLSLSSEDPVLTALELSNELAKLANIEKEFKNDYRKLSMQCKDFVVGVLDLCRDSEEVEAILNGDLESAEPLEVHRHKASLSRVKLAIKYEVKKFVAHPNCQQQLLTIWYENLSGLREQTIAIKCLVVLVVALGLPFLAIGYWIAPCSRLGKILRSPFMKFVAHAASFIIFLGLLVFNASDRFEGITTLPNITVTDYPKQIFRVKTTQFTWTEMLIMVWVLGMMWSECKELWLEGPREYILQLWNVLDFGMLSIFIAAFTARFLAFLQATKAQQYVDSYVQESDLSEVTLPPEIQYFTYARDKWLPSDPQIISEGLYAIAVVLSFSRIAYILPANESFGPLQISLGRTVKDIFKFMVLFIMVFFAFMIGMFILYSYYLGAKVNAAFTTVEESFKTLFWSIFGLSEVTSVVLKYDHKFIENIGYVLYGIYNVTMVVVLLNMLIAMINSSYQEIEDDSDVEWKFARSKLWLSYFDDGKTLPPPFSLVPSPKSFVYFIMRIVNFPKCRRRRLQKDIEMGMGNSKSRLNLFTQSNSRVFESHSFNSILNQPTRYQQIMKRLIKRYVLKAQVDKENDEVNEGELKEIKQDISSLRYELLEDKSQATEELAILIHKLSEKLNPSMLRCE
Kind of data set: Antagonist activity at human TRPC3 expressed in HEK293 cells assessed as inhibition of carbachol-induced activity at 10 uM measured after 48 hrs by Whole-cell patch clamp electrophysiology relative to control. It is filed as cell-based. To be noted: filed as antagonist.

The test system of data set [6] is Hippocampal neurone. Description: Rescuing beta-amyloid induced neuronal cell damage in Sprague-Dawley rat primary hippocampal cell culture (composed of 60% primary neuron, 20% microglia and 20% astrocyte) assessed as decrease in soluble oligomeric Abeta-containing media (7PA2 cells) induced functional synapses by measuring decrease in PSD95 clustering level at 100 nM. It is filed as cell-based.

Regarding `CCNCc1cnn(-c2ccc(-n3ccc(Cl)c(Cl)c3=O)cc2)c1C(F)(F)F`, the result in data set [1] and in data set [2] was inactive. The compound also showed a half-inhibitory concentration (IC50) at Cytochrome P450 2C9 of over 50 µM. The t1/2 in data set [3] amounted to 3.17 h. For the same compound, the outcome in the data set on Hippocampal neurone [4] and in the data set with Hippocampal neurone [6] was Active. In data set [5], the inhibition was over 97%.
